Read-outs that look alike come from different tables or passages of the source.
What was measured:
[1] = tested on: HBV; experiment: PHH screening protocol: HBsAg and HBeAg levels by MSD ELISA; type: cell-based, Hepatitis B Virus; details: Hepatitis B virus
Experimental: HBV antiviral activity was assessed in primary human hepatocytes (PHH) in a 96-well format. PHH were (Life Technologies, Chicago, 11) plated on collagen coated tissue culture plates using Plating Media containing William's Medium E supplemented with 1% Penicillin/Streptomycin, 4 μg/mL human recombinant insulin, 2 mM glutamax, 15 mM Hepes, 1 μM dexamethasone and 5% fetal bovine serum (Life Technologies, Cat#A12176-01 Life Technologies, Chicago, Ill.). After a 4-hour incubation at 37° C., cells were switched to Maintenance Media (Cat#CM4000-A15564 Life Technologies, Chicago, Ill.) containing William's Medium E supplemented with 0.5% Penicillin/Streptomycin, 6.25 μg/mL human recombinant insulin, 6.25 μg/mL human transferrin, 6.25 ng/mL selenous acid, 1.25 mg/mL bovine serum albumin, 5.35 μg/mL linoleic acid, 2 mM glutamax, 15 mM Hepes, 0.1 μM dexamethasone, 2% fetal bovine serum, and 2% DMSO (Cat#D2650 Sigma, St. Louis, Mo.). On the next day, cells were infected with approximately 500 genome equivalent of selected HBV clinical isolates (21P (GTA), 32P (GTA), 91P (GTA), AD38 (GTD), 65P (GTD) or 30P (GTE); ProteoGenex, Culver City, Calif.) per cell in Maintenance Media supplemented with 4% PEG 8000 (Cat#V3011 Promega, Madison, Wis.). After 24 hour incubation cells were washed three times with William's Medium E and fed with fresh Maintenance Media. Small molecule inhibitors targeting KDMs were serially diluted in Maintenance Media and added to cells at 3 days post infection (p.i.). Media with compounds was replenished every 2-3 days. Media collected on various days was used for determination of HBsAg and HBeAg levels by MSD ELISA, and HBV RNA by qPCR. All data were converted into percentages of the untreated control and non-linear regression was performed to calculate EC50 or CC50 values.

[2] = Alamar Blue cell viability assay; type: cell-based; details: human
Experimental: Alamar Blue cell viability reagent (Cat#DAL1100 Life Technologies, Chicago, Ill.) was diluted 1 to 10 in Maintenance Media and added to the cells. Cells were incubated for 4 h at 37° C. and the fluorescence signal, which is proportional to the number of live cells, was read using a fluorimeter with excitation/emission spectra set at 560/590 nm, respectively. Data were converted into percentages of the untreated control and non-linear regression was performed to calculate CC50 values.
PHH were plated in collagen coated tissue culture plates in Plating Media and after 4-hour incubation at 37° C., cells were switched to Maintenance Media. On the next day, the cells were infected with 500 genome equivalents per cell of Genotype-A clinical isolate 21P (ProteoGenex, Culver City, Calif.) in 100 μl Maintenance Media supplemented with 4% PEG 8000 (Cat#V3011 Promega, Madison, Wis.). After an overnight incubation the inoculum was removed and the cells were washed three times with William's Media E and maintained in Maintenance Media. […] Following the transfection, the cells were incubated at 37° C. in a humidified incubator and media was changed every 3-4 days. The assay was terminated on day 14 post infection and cell viability was assessed by Alamar Blue. The collected medium was used for determination of HBsAg and HBeAg levels by MSD ELISA while cells were processed for determination of HBV RNA using qPCR.

[3] = tested on: HBV; experiment: Determination of HBV viral RNA by RT-qPCR in PHH; type: cell-based; details: Hepatitis B virus, read-out: HBV RNA EC50
Experimental: Following the Alamar Blue measurement, media was removed and total RNA from the cells was isolated using the RNeasy 96 Kit (Cat#74182 Qiagen, Venlo, Netherlands). […] GAPDH mRNA levels were also measured by RT-qPCR to control for differences in cell number, toxicity, and RNA purification efficiency (Cat#4390849 Life Technologies, Chicago Ill.). HBV mRNA Ct values were normalized using their cognate GAPDH mRNA Ct values by the delta-delta-Ct calculation and then expressed as a percentage of the non-targeting scrambled control.

[4] = target: T1, KDM5D (Homo sapiens, UniProt Q9BY66); experiment: Biochemical KDM inhibition assay (LANCE), KDM5D; details: read-out: Biochemical IC50 KDM 5D
T1 construct: host or cells: Sf9 cells
T1 sequence (Q9BY66 whole entry): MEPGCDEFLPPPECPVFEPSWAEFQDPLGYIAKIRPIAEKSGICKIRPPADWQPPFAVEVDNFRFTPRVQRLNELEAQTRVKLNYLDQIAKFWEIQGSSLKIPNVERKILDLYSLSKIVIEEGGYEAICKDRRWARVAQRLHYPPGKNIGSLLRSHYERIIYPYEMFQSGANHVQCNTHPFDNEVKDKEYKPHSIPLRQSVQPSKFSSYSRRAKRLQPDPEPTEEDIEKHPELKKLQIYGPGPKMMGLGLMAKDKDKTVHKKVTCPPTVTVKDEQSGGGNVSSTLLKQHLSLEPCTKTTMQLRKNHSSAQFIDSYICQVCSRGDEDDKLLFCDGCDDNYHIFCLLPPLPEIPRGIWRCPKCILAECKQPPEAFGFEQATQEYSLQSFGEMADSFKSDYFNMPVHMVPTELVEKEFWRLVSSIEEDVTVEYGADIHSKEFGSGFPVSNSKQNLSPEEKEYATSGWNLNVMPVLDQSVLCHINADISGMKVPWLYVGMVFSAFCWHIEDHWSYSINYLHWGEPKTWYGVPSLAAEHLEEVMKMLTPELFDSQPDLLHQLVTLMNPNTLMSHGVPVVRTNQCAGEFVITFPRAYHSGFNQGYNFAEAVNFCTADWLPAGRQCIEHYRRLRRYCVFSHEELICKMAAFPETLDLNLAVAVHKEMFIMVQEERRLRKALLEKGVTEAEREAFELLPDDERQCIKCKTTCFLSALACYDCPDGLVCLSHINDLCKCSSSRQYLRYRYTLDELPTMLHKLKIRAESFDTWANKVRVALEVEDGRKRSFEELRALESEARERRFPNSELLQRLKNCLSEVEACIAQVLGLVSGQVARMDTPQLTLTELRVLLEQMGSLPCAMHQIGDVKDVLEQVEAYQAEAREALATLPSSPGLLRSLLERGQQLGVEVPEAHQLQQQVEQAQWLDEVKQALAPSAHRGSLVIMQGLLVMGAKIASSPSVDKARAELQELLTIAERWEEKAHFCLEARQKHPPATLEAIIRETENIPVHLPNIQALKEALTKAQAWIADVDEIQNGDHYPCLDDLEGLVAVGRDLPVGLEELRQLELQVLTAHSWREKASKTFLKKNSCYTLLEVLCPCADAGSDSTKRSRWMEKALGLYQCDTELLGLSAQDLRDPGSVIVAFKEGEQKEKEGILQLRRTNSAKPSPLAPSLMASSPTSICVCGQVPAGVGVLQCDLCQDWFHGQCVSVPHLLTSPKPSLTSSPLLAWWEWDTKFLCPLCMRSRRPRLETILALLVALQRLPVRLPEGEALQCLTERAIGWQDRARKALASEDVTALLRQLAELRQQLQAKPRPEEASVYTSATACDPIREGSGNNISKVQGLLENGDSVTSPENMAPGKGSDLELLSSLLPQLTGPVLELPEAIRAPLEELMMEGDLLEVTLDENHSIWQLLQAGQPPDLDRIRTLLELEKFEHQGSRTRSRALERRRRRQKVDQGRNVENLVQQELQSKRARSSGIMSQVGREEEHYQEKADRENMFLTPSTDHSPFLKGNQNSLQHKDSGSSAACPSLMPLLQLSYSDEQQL
Experimental: (§1) Representative compounds were characterized for their inhibition of KDM5 using biotinylated histone substrates. Inhibition was measured in vitro (CEREP Poitier, Le Bois l'Evêque, France) following experimental conditions described in Table 2. Briefly, the test compound, reference compound or water (control) was mixed with about 2-20 ng of recombinant, Human enzymes expressed in Sf9 cells in a buffer containing 45 mM Hepes/Tris (pH 7), 5 μM FAS, 100 μM ascorbic acid, 10 μM 2-oxoglutarate, 0.01% Tween 20 and 0.01% BSA. Thereafter, the reaction was initiated by adding the biotin-labeled substrate, and the mixture was incubated for 10-30 min at room temperature. For basal control measurements, the enzyme was omitted from the reaction mixture. Following incubation the reaction was stopped by adding 1 mM EDTA. After 5 min, the anti-methyl histone antibody labeled with europium chelate and the Ulight streptavidine (Perkin Elmer Waltham, Mass.) were added. After 60 min more, the fluorescence transfer was measured at λex=320 nm and λem=620 and λem=665 nm using a microplate reader (Envision, Perkin Elmer) (LANCE). The enzyme activity was determined by dividing the signal measured at λem=665 nm by that measured at 620 nm (ratio).

[5] = target: KDM5A (Homo sapiens, UniProt P29375); experiment: Biochemical KDM inhibition assay (LANCE), KDM5A; details: read-out: Biochemical IC50 KDM 5A
Sequence of KDM5A (P29375 whole entry): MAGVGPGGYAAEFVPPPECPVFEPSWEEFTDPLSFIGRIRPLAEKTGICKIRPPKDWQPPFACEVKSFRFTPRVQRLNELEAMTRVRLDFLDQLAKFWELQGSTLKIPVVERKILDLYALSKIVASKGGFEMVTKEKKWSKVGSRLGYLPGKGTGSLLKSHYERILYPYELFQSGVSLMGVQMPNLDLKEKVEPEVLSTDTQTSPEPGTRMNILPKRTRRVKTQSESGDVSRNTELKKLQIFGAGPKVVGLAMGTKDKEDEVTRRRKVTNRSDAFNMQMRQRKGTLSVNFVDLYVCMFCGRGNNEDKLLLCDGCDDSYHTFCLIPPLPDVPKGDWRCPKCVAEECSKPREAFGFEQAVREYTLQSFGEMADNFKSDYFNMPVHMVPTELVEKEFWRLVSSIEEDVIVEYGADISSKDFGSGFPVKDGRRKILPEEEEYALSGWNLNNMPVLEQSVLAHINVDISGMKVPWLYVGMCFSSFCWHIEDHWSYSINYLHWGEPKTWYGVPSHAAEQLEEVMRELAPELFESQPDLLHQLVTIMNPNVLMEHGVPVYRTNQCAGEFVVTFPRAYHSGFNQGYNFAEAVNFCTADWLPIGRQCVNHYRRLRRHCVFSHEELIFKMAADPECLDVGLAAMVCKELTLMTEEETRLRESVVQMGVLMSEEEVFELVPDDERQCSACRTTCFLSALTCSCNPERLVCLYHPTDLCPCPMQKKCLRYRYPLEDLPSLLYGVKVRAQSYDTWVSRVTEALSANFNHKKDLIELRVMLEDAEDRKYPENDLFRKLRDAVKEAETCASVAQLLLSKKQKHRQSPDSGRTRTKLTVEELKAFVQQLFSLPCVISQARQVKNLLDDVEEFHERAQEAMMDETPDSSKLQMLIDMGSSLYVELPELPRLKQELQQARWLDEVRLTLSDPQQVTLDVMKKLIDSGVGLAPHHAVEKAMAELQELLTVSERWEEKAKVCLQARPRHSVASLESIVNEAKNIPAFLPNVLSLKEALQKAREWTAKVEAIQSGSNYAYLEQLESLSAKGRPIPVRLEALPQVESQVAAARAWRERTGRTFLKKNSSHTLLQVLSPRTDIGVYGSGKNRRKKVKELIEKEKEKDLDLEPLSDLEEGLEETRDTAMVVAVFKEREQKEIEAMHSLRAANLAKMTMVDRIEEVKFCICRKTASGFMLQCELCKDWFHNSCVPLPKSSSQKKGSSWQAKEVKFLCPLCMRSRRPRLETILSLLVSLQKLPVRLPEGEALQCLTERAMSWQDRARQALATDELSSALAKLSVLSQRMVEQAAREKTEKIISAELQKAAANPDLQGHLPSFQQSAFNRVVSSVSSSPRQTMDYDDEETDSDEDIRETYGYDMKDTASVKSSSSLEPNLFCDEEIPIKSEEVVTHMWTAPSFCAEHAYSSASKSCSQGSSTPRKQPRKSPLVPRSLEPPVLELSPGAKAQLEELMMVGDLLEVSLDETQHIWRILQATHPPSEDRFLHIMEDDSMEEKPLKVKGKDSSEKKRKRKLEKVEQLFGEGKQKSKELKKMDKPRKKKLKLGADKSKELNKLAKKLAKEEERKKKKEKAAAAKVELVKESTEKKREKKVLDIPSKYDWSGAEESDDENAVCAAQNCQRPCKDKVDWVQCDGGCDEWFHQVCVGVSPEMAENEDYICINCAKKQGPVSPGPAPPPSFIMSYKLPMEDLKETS
Experimental: as §1

[6] = target: T2, KDM5B (Homo sapiens, UniProt Q9UGL1); experiment: Biochemical KDM inhibition assay (LANCE), KDM5B; details: read-out: Biochemical IC50 KDM 5B
T2 construct: host or cells: Sf9 cells
T2 sequence (Q9UGL1 whole entry): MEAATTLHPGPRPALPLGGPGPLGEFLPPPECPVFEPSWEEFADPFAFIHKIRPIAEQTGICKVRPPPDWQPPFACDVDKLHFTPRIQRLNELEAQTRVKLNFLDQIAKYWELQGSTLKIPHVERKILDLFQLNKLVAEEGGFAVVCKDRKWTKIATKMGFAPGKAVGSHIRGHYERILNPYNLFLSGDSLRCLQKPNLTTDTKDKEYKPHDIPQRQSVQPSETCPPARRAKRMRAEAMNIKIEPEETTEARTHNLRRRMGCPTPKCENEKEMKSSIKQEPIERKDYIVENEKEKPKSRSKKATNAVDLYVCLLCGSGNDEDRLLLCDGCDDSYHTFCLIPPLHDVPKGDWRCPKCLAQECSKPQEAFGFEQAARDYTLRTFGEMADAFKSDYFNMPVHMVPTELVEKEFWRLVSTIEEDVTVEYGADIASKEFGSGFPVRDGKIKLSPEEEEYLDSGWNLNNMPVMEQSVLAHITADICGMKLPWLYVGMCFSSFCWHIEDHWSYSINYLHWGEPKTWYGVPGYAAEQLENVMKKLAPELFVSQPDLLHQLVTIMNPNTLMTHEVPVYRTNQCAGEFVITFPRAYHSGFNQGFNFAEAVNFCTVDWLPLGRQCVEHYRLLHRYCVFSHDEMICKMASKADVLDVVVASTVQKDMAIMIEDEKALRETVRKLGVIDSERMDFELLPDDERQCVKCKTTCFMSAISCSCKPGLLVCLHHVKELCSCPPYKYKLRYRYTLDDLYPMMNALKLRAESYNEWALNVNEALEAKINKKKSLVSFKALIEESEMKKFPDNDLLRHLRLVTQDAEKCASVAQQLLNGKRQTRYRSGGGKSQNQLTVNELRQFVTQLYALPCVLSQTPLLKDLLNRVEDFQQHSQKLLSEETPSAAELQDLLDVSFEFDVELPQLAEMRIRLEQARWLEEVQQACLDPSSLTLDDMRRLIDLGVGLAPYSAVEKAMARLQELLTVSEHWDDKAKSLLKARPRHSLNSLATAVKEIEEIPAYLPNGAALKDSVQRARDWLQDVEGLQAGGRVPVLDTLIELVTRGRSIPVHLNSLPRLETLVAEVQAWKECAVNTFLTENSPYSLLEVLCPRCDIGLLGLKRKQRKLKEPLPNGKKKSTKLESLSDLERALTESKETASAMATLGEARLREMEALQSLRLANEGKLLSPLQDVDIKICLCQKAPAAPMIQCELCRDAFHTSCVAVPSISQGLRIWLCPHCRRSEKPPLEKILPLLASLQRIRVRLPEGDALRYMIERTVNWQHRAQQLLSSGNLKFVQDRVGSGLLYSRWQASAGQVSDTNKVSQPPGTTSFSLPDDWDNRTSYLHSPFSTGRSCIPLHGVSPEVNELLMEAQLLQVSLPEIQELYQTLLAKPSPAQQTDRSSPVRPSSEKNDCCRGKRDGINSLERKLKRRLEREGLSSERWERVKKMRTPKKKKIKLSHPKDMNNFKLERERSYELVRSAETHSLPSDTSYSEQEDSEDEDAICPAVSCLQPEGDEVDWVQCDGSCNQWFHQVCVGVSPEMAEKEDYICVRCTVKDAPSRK
Experimental: as §1

[7] = target: T3, KDM4E (Homo sapiens, UniProt B2RXH2); experiment: Biochemical KDM inhibition assay (LANCE), KDM4E; details: read-out: Biochemical IC50 KDM 4E
T3 construct: host or cells: Sf9 cells
T3 sequence (B2RXH2 1-506): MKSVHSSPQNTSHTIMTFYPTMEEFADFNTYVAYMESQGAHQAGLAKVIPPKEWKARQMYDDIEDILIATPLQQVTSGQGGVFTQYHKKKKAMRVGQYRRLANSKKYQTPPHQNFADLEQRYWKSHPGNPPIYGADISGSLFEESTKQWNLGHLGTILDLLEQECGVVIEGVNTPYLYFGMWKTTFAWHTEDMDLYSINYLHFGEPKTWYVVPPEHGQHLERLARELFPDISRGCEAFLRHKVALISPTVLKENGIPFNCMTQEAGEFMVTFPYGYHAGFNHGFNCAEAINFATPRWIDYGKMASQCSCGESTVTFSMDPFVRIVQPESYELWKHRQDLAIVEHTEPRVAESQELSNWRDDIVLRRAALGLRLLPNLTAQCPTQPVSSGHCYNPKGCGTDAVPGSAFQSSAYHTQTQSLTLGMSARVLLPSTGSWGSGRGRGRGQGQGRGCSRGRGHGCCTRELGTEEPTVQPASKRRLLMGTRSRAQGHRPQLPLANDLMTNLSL

[8] = tested on: H3K4me3 mark; experiment: Western blot detection of H3K4me3 in HBV-infected PHHs; type: cell-based, human; details: for IC50: Homo sapiens
Experimental: One million primary human hepatocytes (PHH) cells from three different donors were plated in 6 well collagen coated tissue culture plates in 2.5 ml Plating Media containing William's Medium E supplemented with 1% Penicillin/Streptomycin, 4 μg/mL human recombinant insulin, 2 mM glutamax, 15 mM Hepes, 1 μM dexamethasone and 5% fetal bovine serum (Life Technologies, Cat#A12176-01 Life Technologies, Chicago, Ill.) and incubated for 4-hours at 37° C. Following this incubation the media was changed to Maintenance Media (Cat#CM4000-A15564 Life Technologies, Chicago, Ill.) containing William's Medium E supplemented with 0.5% Penicillin/Streptomycin, 6.25 μg/mL human recombinant insulin, 6.25 μg/mL human transferrin, 6.25 ng/mL selenous acid, 1.25 mg/mL bovine serum albumin, 5.35 μg/mL linoleic acid, 2 mM glutamax, 15 mM Hepes, 0.1 μM dexamethasone, 2% fetal bovine serum, and 2% DMSO (Cat#D2650 Sigma, St. Louis, Mo.). The next day, cells were infected with approximately 500 genome equivalents of HBV clinical isolates 21P (GTA) or AD38 (GTD) per cell in Maintenance Media supplemented with 4% PEG 8000. Small molecule inhibitors targeting KDMs were serially diluted in Maintenance Media and added to cells at 3 days post infection (p.i.). Media with compounds was replenished every 2-3 days. Cells were harvested on day 14 p.i. by scraping the monolayer into ice-cold PBS supplemented with 5 mM Sodium Butyrate and concentrated by centrifugation at 1000×g for 5 minutes at 4° C. The cell pellets were washed twice by re-suspension in PBS and concentrated by centrifugation. The cells were lysed by suspension in Triton Extraction Buffer (TEB: PBS containing 0.5% Triton X 100 (v/v), 2 mM phenylmethylsulfonyl fluoride (PMSF), 0.02% (w/v) NaN3) at a cell density of 10^7 cells per ml and incubated on ice for 10 minutes with gentle stirring. Following centrifugation at 500 g for 10 minutes at 4° C., the supernatants were removed and the pellets were washed in 5×10^7 cells per ml TEB buffer and centrifuged as before. The pellets were re-suspended in 0.2N HCl at a cell density of 4×10^7 cells per ml and the histones were acid extracted overnight at 4° C. Samples were centrifuged at 500 g for 10 minutes at 4° C., the supematants were removed and protein content was determined using the Bradford assay. Histones were separated on a 4-20% gradient SDS gel (Mini protean TGX precast gels from BioRad), and blotted to a Hybond C-extra nitrocellulose membrane (Amersham Biosciences, RPN303E). H3K4me3 and total H3 were detected with a mixture of 1° antibodies (Cat#05-745R Millipore and Cat#14269S Cell Signaling) diluted 1:1000 in 5% skimmed milk powder in PBS containing 0.1% Tween. The western blot was washed 3 times in PBS containing 0.1% tween and incubated with 2° antibodies (Donkey anti-Mouse IRDye at 680LT Cat#926-68022 Licor Odyssey; Donkey anti-Rabbit IRDye at 800CW Cat#96-32213; Licor Odyssey) diluted 1:10000 in 5% skimmed milk powder in PBS containing 0.1% tween 20 for 1 h. Detection of infrared fluorescence was performed on Infrared Fluorescence Imaging System LI-COR. Concentration dependence of H3K4me3/H3 signal was used to calculate IC50 value for induction of H3K4 trimethylation.

[9] = read-out: HBeAg EC50, HBV-infected PHH
[10] = read-out: HBsAg EC50, HBV-infected PHH
[11] = primary human hepatocytes (PHH), read-out: PHH CC50

O=C(O)CCNc1cc(N2CCc3ccccc3CC2)nc(-c2ccccn2)n1 [Example 1, GSK-J1, reference compound]
EC50 [1, 9]: 8.04 µM | EC50 [1, 10]: 22.4 µM | CC50 [2, 11]: ≥ 100 µM

O=C(O)c1ccc(O)c2ncccc12 [Example 2, 8-HQ-5-COOH, reference compound]
EC50 [1, 9]: 32 µM | EC50 [1, 10]: 45.8 µM

CCOC(=O)CCNc1cc(N2CCc3ccccc3CC2)nc(-c2ccccn2)n1 [Example 3, GSK-J4, reference compound]
EC50 [1, 9]: 3.43 µM | EC50 [1, 10]: 28.7 µM | CC50 [2, 11]: ≥ 100 µM

Clc1ccc(N/N=C(\c2ccccc2)c2ccccn2)nc1 [Example 4, JIB-04, reference compound]
EC50 [1, 9]: 0.9 µM | EC50 [1, 10]: 0.9 µM | EC50 ([3]; HBV-infected PHH): 4.6 µM | CC50 [2]: ≥ 100 µM

CN(C)CCCNC(=O)c1ccc(-c2cc(O)c3ncccc3c2)cc1 [Example 5, ML-324, reference compound]
EC50 [1, 9]: 34.5 µM | EC50 [1, 10]: 38.4 µM | CC50 [2, 11]: 69.4 µM

N[C@H]1C[C@@H]1c1ccc(-c2cccc(O)c2)cc1 [Example 6, OG-L002, reference compound]
EC50 [1, 9]: 46.7 µM | EC50 [1, 10]: 38.3 µM | EC50 [3]: 31.6 µM | CC50 [2]: ≥ 100 µM

NC1CC1c1cccc(OCC[C@H](NC(=O)c2ccccc2)C(=O)NCc2ccccc2)c1 (some centres unmarked) [Example 10, NCL-1, reference compound]
EC50 [1, 9]: 19 µM | EC50 [1, 10]: 19.4 µM | CC50 [2]: 8.12 µM

O=C(O)c1ccnc(-n2ncc(CCO)c2OCc2ccc(F)cc2)c1 [Example 12]
IC50 [4]: 6.4 µM | IC50 [5]: 1.6 µM | IC50 [6]: 2.7 µM | IC50 [7]: 9.1 µM | EC50 [1, 9]: 50 µM | EC50 [1, 10]: 50 µM | CC50 [2]: ≥ 50 µM

CCN(CCN(C)C)C(=O)CNCc1cc(C=O)ccn1 [Example 15]
IC50 ([8]; read-out: IC50 (concentration causing a 50% increase in the H3K4me3 mark), Virus 21P (GTA), PHH 8130): 0.05 µM | IC50 ([8]; read-out: IC50 (concentration causing a 50% increase in the H3K4me3 mark), Virus 21P (GTA), PHH 8181): 0.03 µM | IC50 ([8]; read-out: IC50 (concentration causing a 50% increase in the H3K4me3 mark), Virus AD38 (GTD), PHH 4239): 0.02 µM | IC50 ([8]; read-out: IC50 (concentration causing a 50% increase in the H3K4me3 mark), Virus AD38 (GTD), PHH 8130): 0.05 µM | IC50 ([8]; read-out: IC50 (concentration causing a 50% increase in the H3K4me3 mark), Virus AD38 (GTD), PHH 8181): 0.04 µM | chromatin H3K4Me3 mark ([8]; PHH from three different donors): increase in the chromatin H3K4Me3 mark in a dose-dependent manner | EC50 [1, 9]: 0.053 µM | EC50 [1, 10]: 0.041 µM | CC50 [2]: ≥ 50 µM

CCN(CCN(C)C)C(=O)CNCc1cc(/C=N/CCO)ccn1 [Example 16]
EC50 [1, 9]: 0.648 µM | EC50 [1, 10]: 0.257 µM | CC50 [2]: ≥ 50 µM

Source: US20160303095A1, “METHODS OF TREATING HEPATITIS B VIRUS” (Gilead Sciences, Inc., priority 2015, published 2016)
